Laboratory results published in US20070248701A1, “METHODS AND FORMULATIONS FOR INHIBITING NATURALLY OCCURRING PHOSPHODIESTERASE” (priority 2003, published 2007).
Like-named read-outs stand apart in the source and are kept apart here.

How the values were obtained:
[1] = target: Phosphodiesterase PDE4; settings: reference compound, historical value; cited from earlier work
[2] = target: Phosphodiesterase PDE1; settings: reference compound, historical value; cited from earlier work
[3] = target: T1, Phosphodiesterase PDE2 (Homo sapiens, UniProt O00408); assay: Phosphodiesterase PDE2 enzyme assay; format: biochemical; settings: reference compound tested concurrently, batch 70678; read-out: Concurrent IC50
[4] = target: T2, Phosphodiesterase PDE5 (Homo sapiens, UniProt O76074); assay: Phosphodiesterase PDE5 enzyme assay; format: biochemical; settings: reference compound tested concurrently, batch 70681; read-out: Concurrent IC50
[5] = target: T3, Phosphodiesterase PDE3 (Homo sapiens, UniProt Q14432); settings: reference compound, historical value; cited from earlier work
[6] = target: Phosphodiesterase PDE1; assay: Phosphodiesterase PDE1 enzyme assay; format: biochemical, bovine; settings: reference compound tested concurrently, batch 70431; read-out: Concurrent IC50
[7] = target: T1, Phosphodiesterase PDE2; settings: reference compound, historical value; cited from earlier work
[8] = target: T2, Phosphodiesterase PDE5; settings: reference compound, historical value; cited from earlier work
[9] = target: Phosphodiesterase PDE4; assay: Phosphodiesterase PDE4 enzyme assay; format: biochemical, human; settings: reference compound tested concurrently, batch 70680; read-out: Concurrent IC50
[10] = target: T3, Phosphodiesterase PDE3; assay: Phosphodiesterase PDE3 enzyme assay; format: biochemical; settings: reference compound tested concurrently, batch 70679; read-out: Concurrent IC50
[11] = target: T4, Phosphodiesterase PDE6 (Bos taurus, UniProt P11541+P23439); settings: reference compound, historical value; cited from earlier work
T4 sequence (P11541 1-859): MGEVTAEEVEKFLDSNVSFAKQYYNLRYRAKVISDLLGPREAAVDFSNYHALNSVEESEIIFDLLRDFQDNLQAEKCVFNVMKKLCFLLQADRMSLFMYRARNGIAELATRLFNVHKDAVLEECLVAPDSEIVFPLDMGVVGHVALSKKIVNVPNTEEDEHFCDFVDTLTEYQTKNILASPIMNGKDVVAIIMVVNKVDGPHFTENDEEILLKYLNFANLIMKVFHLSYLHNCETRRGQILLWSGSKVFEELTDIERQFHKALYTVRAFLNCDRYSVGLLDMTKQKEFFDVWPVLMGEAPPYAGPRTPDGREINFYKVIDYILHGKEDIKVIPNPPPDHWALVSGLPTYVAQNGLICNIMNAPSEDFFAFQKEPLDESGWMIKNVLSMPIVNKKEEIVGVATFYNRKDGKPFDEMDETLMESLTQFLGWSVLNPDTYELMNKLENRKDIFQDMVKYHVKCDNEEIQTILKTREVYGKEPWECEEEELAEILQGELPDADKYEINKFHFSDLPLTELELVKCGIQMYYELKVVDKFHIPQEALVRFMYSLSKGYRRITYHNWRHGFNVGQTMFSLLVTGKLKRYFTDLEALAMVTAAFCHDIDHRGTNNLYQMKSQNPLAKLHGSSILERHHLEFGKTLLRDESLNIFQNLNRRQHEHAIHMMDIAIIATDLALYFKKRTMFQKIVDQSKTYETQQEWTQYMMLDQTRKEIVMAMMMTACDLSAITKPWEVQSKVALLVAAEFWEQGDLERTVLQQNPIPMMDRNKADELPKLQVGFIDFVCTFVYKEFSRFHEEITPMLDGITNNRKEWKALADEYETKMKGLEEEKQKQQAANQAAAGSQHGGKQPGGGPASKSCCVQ
T4 sequence (P23439 1-853): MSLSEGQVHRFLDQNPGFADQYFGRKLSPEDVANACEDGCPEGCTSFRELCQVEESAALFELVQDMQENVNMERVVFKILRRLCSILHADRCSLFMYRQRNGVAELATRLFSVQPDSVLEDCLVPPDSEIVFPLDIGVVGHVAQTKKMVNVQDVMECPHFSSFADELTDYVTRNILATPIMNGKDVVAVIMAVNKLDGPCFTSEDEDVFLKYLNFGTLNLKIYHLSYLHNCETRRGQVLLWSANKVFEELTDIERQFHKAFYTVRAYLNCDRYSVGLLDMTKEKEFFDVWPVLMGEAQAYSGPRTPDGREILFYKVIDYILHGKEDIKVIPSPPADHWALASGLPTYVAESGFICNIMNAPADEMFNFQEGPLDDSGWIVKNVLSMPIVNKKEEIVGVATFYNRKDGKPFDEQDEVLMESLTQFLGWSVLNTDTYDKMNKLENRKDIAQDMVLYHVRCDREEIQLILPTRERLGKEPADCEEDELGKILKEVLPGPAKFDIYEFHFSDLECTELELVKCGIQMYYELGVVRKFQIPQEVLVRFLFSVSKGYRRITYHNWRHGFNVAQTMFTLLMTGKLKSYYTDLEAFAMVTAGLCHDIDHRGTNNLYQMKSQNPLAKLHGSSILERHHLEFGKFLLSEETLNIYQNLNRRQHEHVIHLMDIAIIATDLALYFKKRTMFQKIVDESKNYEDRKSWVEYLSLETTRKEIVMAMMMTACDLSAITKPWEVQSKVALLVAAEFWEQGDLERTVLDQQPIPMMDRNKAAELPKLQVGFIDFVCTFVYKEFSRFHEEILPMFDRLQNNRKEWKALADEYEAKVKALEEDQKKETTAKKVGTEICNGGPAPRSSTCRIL

[12] = target: T4, Phosphodiesterase PDE6; assay: Phosphodiesterase PDE6 enzyme assay; format: biochemical, bovine; settings: reference compound tested concurrently, batch 70682; read-out: Concurrent IC50
Experimental: The test material (TNPJCon) was tested using an Enzyme assays that involve PDE enzymes from both bovine and human origin known as PDE1, PDE2, PDE3, PDE4, PDE6. All of the enzyme assays were run on a 1% concentration of TNPJCon. Please note that the IC50 was not determined.

T3 sequence (Q14432 whole entry): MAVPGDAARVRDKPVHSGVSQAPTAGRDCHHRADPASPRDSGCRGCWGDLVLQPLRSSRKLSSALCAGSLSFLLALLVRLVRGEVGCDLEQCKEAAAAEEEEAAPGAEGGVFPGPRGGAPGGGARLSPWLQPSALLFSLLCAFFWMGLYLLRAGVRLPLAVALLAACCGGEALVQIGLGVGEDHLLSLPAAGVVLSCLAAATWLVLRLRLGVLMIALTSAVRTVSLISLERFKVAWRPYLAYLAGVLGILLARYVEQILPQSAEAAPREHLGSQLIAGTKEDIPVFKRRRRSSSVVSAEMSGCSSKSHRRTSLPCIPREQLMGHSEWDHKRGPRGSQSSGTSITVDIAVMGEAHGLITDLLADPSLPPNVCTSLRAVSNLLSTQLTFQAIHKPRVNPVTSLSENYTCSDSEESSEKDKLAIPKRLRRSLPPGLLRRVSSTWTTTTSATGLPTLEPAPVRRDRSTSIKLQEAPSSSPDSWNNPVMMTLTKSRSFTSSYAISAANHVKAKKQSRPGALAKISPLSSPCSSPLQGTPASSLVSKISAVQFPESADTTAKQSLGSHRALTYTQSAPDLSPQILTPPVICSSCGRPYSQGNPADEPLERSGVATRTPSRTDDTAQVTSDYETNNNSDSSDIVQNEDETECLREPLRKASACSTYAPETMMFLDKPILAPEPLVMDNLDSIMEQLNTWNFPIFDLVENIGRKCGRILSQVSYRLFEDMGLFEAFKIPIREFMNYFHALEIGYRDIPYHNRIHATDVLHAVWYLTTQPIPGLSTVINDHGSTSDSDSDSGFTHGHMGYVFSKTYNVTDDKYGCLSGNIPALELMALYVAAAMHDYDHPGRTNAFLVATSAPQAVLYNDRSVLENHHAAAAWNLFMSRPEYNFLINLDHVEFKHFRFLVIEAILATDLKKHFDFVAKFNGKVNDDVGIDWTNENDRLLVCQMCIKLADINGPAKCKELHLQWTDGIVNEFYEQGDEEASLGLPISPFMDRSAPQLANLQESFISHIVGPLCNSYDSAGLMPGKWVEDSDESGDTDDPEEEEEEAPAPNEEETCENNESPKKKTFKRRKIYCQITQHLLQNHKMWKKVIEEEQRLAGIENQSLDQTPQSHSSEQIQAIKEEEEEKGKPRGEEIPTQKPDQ
T1 sequence (O00408 whole entry): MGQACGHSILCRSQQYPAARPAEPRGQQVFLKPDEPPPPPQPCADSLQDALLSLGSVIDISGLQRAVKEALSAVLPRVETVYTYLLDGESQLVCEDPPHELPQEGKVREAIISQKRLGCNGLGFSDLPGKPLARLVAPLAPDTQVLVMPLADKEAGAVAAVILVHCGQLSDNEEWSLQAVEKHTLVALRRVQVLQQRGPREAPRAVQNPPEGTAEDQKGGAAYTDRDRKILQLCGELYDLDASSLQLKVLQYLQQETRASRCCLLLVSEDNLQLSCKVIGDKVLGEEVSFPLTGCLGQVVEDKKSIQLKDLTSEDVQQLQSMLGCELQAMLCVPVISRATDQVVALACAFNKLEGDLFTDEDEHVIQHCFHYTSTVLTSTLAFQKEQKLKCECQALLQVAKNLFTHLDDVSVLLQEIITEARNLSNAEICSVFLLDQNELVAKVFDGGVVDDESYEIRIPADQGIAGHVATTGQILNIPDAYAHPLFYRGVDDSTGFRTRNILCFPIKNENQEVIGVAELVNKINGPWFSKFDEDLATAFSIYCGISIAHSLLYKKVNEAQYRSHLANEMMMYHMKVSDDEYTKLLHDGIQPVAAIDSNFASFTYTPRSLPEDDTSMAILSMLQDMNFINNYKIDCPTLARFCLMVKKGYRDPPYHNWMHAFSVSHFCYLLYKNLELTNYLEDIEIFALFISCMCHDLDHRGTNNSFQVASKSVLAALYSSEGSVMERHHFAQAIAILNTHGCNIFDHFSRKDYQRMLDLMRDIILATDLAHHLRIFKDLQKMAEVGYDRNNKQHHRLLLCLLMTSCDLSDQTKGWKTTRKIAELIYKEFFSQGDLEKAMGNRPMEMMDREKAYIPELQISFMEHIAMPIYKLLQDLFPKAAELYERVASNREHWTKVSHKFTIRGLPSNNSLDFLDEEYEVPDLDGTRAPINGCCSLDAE

Row | IC50 [3] | IC50 [4] | IC50 [6] | IC50 [9] | IC50 [10] | SMILES | IC50 [1] | IC50 [2] | IC50 [5] | IC50 [7] | IC50 [8] | IC50 [11] | IC50 [12]
1 | 81 µM | 65.4 µM | 3.76 µM | 30.8 µM | 20.8 µM | CC(C)Cn1c(=O)n(C)c(=O)c2[nH]cnc21 [IBMX] | 6.5 µM | 1.1 µM | 4.6 µM | 30 µM | 63 µM | – | –
2 | – | – | – | – | – | CCCOc1ccccc1-c1nc2nn[nH]c2c(=O)[nH]1 [Zaprinast] | – | – | – | – | – | 0.22 µM | 0.281 µM
